Results on 7 molecules are retold here after PubChem BioAssay (NCI).

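1) Cells in 96-well plates. 2) Compound, 48 h, 5 concentrations. 3) Linear interpolation between surrounding doses. 4) Unreached endpoint = highest concentration. TGI denotes the concentration required for complete inhibition of growth.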

Some test systems named below: HOP-62 NSCLC; U251 CNS; EKVX NSCLC; HL-60(TB) leukemia; NCI-H226 lung; ACHN renal; MDA-N; SN12C renal; SR leukemia; NCI-H23 lung; BT-549 breast; MCF7 breast; COLO 205 colon; SK-MEL-5 melanoma; NCI/ADR-RES ovarian; SK-MEL-2 melanoma; IGROV1 ovarian; SNB-75 CNS; A549 NSCLC; HS 578T breast.
Assay in all cases: inhibition of tumour cell growth, NCI panel, 48 h

On to `COC(=O)C[C@@H]1C(C)(C)[C@@H]2O[C@@]34C[C@@H]2C(=O)[C@]1(C)[C@H]3CC[C@@]1(C)[C@H](c2ccoc2)OC(=O)C[C@]14O`, for which the TGI in the experiment on HOP-62 NSCLC, with U251 CNS, in the experiment with EKVX NSCLC, in the experiment with HL-60(TB) leukemia, in the experiment with NCI-H226 lung and in the experiment on ACHN renal was above 100 µM throughout. The TGI in the experiment on MDA-N, in the experiment with SN12C renal, in the experiment with SR leukemia, in the experiment on NCI-H23 lung, in the experiment on BT-549 breast and in the experiment on MCF7 breast was above 100 µM throughout. The TGI in the experiment with COLO 205 colon, in the experiment with SK-MEL-5 melanoma, with NCI/ADR-RES ovarian, with SK-MEL-2 melanoma, in the experiment on IGROV1 ovarian and in the experiment with SNB-75 CNS was above 100 µM in each case. The molecule further registered a TGI in the experiment on A549 NSCLC above 100 µM.
On to `CCOC(=O)CC(=O)C(=O)NNC1=NCCCN1`, for which the TGI in the experiment on HOP-62 NSCLC, in the experiment on U251 CNS, in the experiment on HS 578T breast, in the experiment with EKVX NSCLC, in the experiment with HL-60(TB) leukemia and in the experiment with NCI-H226 lung was above 100 µM throughout. For the same molecule, the TGI in the experiment with ACHN renal, with MDA-N, in the experiment with SN12C renal, with SR leukemia, with NCI-H23 lung and in the experiment with BT-549 breast was above 100 µM each time. In addition, the TGI in the experiment with MCF7 breast, in the experiment on COLO 205 colon, with SK-MEL-5 melanoma, with SK-MEL-2 melanoma, in the experiment with IGROV1 ovarian and in the experiment with SNB-75 CNS was above 100 µM each time. Moreover, in the experiment on A549 NSCLC, the TGI is above 100 µM.
Turning to `CCCCCCCC/C=C\CCCCCCC(F)C(=O)O` (stereo not given), the TGI in the experiment with HOP-62 NSCLC, in the experiment with U251 CNS, in the experiment with HS 578T breast, with EKVX NSCLC, in the experiment on HL-60(TB) leukemia and with NCI-H226 lung was above 12.5 µM in each case. Further, the TGI in the experiment on ACHN renal, in the experiment on MDA-N, in the experiment with SN12C renal, in the experiment on SR leukemia, with NCI-H23 lung and in the experiment with MCF7 breast was above 12.5 µM in each case. The TGI in the experiment on COLO 205 colon, with SK-MEL-5 melanoma, with NCI/ADR-RES ovarian, with SK-MEL-2 melanoma, with IGROV1 ovarian and in the experiment on SNB-75 CNS was above 12.5 µM throughout. The molecule also came in with a TGI in the experiment with A549 NSCLC above 12.5 µM.
As to `O=C1c2ccccc2-c2nc3ccc(O)cc3n21`, the TGI with HOP-62 NSCLC, in the experiment on U251 CNS, in the experiment with EKVX NSCLC, in the experiment on HL-60(TB) leukemia, in the experiment with NCI-H226 lung and in the experiment with ACHN renal was above 100 µM throughout. Moreover, the TGI in the experiment on MDA-N, in the experiment on SN12C renal, in the experiment on SR leukemia, in the experiment on NCI-H23 lung, in the experiment with BT-549 breast and in the experiment with MCF7 breast was above 100 µM throughout. For the same molecule, the TGI in the experiment on COLO 205 colon, with SK-MEL-5 melanoma, in the experiment with NCI/ADR-RES ovarian, in the experiment on SK-MEL-2 melanoma, in the experiment with IGROV1 ovarian and with SNB-75 CNS was above 100 µM in each case. The molecule further showed a TGI in the experiment with A549 NSCLC above 100 µM.
As to `NCC#CCNCCCN1CC1`, the TGI in the experiment on HOP-62 NSCLC, with U251 CNS, in the experiment with HS 578T breast, in the experiment with EKVX NSCLC, in the experiment on HL-60(TB) leukemia and in the experiment on NCI-H226 lung was above 100 µM each time. Besides, the TGI with ACHN renal, with MDA-N, in the experiment on SN12C renal, in the experiment with SR leukemia, with NCI-H23 lung and in the experiment with MCF7 breast was above 100 µM in each case. The TGI in the experiment on COLO 205 colon, in the experiment on SK-MEL-5 melanoma, in the experiment on NCI/ADR-RES ovarian, with SK-MEL-2 melanoma, in the experiment with IGROV1 ovarian and in the experiment on A549 NSCLC was above 100 µM in each case.
On to `O=C1OCC2(CO1)CC1C=CC2C1` (stereo not given), for which the TGI in the experiment with HOP-62 NSCLC, in the experiment with U251 CNS, in the experiment with HS 578T breast, in the experiment with EKVX NSCLC, in the experiment on HL-60(TB) leukemia and with NCI-H226 lung was above 100 µM throughout. For the same molecule, the TGI in the experiment on ACHN renal, with MDA-N, in the experiment on SN12C renal, in the experiment on SR leukemia, in the experiment on NCI-H23 lung and in the experiment on MCF7 breast was above 100 µM each time. Also, the TGI in the experiment with COLO 205 colon, in the experiment on SK-MEL-5 melanoma, with NCI/ADR-RES ovarian, with SK-MEL-2 melanoma, in the experiment on IGROV1 ovarian and with A549 NSCLC was above 100 µM throughout.
Turning to `Nc1ncnc2c1ncn2C1C=CC(CP(=O)(O)O)C1` (stereo not given), the TGI in the experiment with HOP-62 NSCLC, in the experiment on U251 CNS, with HS 578T breast, in the experiment on EKVX NSCLC, with NCI-H226 lung and with ACHN renal was above 100 µM each time. Besides, the TGI in the experiment on MDA-N, in the experiment with SN12C renal, in the experiment on SR leukemia, with NCI-H23 lung, in the experiment on MCF7 breast and with COLO 205 colon was above 100 µM throughout. Moreover, the TGI in the experiment with SK-MEL-5 melanoma, in the experiment on NCI/ADR-RES ovarian, in the experiment with SK-MEL-2 melanoma, in the experiment with IGROV1 ovarian, in the experiment on SNB-75 CNS and with A549 NSCLC was above 100 µM each time.
